Reference: PubChem BioAssay (NCI)
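Five concentrations, 48 hours, 96-well plates. TGI: total growth inhibition.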 Where a SMILES comes first, the peptide text is derived from it. [ ]: non-standard residue; d: D form. ΔPro = O=C(O)[CH]1C=CCN1

How the values were obtained:
Assay in all cases: DTP human tumour cell line panel, 48 h
[1] = system: A549 NSCLC
[2] = system: CCRF-CEM leukemia
[3] = system: COLO 205 colon
[4] = system: HCT-116 colon
[5] = system: HCT-15 colon
[6] = system: IGROV1 ovarian
[7] = system: MALME-3M melanoma
[8] = system: MCF7 breast
[9] = system: MDA-MB-231 breast
[10] = system: MDA-MB-435
[11] = system: SF-539 CNS
[12] = system: SK-MEL-28 melanoma
[13] = system: SNB-19 CNS
[14] = system: SW-620 colon
[15] = system: TK-10 renal
[16] = system: UACC-62 melanoma

Measured: TGI

O=C(O)C1C=CCN1C(=O)C1C=CCN1C(=O)C1C=CCN1 (stereo not given) (H-[ΔPro]-[ΔPro]-[ΔPro]-OH; configuration not given here)
> 100 µM: [1] | [2] | [3] | [4] | [5] | [6] | [7] | [8] | [9] | [10] | [11] | [12] | [13] | [14] | [15] | [16]

CC(C)(C)OC(=O)N(O)[C@@H]1CC[C@H](n2cnc3c(N)ncnc32)C1
> 100 µM: [1] | [2] | [3] | [4] | [5] | [6] | [7] | [8] | [9] | [10] | [11] | [12] | [13] | [14] | [15] | [16]

Clc1cccc(-c2nc3cccc4c3n2Cc2ncccc2-4)c1
> 100 µM: [1] | [2] | [3] | [4] | [5] | [6] | [7] | [8] | [9] | [10] | [11] | [12] | [13] | [14] | [15] | [16]

COc1ccccc1-n1nnc2c(N)nc(N)nc21
> 100 µM: [1] | [2] | [3] | [4] | [5] | [6] | [7] | [8] | [9] | [10] | [11] | [12] | [13] | [14] | [15] | [16]

CCO/C(O)=C(/C(=N)N1CCOCC1)C(=O)NC(C)C
> 100 µM: [1] | [2] | [3] | [4] | [5] | [6] | [7] | [8] | [9] | [10] | [11] | [12] | [13] | [14] | [15] | [16]
